“And” between values parts separate entries of the source, which are not always exact repeats. Equal entries are not always repeated.
System: caries
Test: 6-month comparison of silver-diamine-fluoride (SDF) and fluoride varnish in school aged children
Format: in vivo
Description: A fluoride composition was used in the study.
The compositions were applied once at the time of the initial exam using a tiny brush to any decayed area for 3 min, then the child rinsed.

[1] = after 6 months, applied once to decayed area for 3 min

**Q.** Which “SDF Number Needed To Treat, Active Caries” value ([1/(Varnish % − SDF %)], 6 months) does the source give for silver diamine fluoride [SDF] here?
**A.** Its value is 1.2.

**Q.** And the “SDF Prevented Fraction, Active Caries” value ([(Varnish % − SDF %)/Varnish %], 6 months)?
**A.** The value was 82.7.

**Q.** And the “reduction in active caries compared to fluoride varnish” value (after 6 months)?
**A.** The value was “about 80%”.

**Q.** And the “Active Caries, # of School Children, Frequency” value [1]?
**A.** Its value is 20.

**Q.** What about the “Active Caries, # of School Children, Percent” value [1] of the same substance?
**A.** The value was 16% and 16.8%.

**Q.** And the “Active and Arrested Caries in same child, # of School Children, Frequency” value [1]?
**A.** Its value is 69.

**Q.** And the “Active and Arrested Caries in same child, # of School Children, Percent” value [1]?
**A.** Its value is 58.0%.

**Q.** What about the “Arrested Caries, # of School Children, Frequency” value [1] of the same substance?
**A.** The value was 27.

**Q.** What about the “Arrested Caries, # of School Children, Percent” value [1] of the same substance?
**A.** Its value is 22.7%.

**Q.** And the “Dental Fillings, # of School Children, Frequency” value [1]?
**A.** The value was 3.

**Q.** What about the “Dental Fillings, # of School Children, Percent” value [1] of the same substance?
**A.** The value was 2.5%.

Reference: patent US20100247456A1, “METHODS AND COMPOSITIONS FOR PREVENTING CARIES” (priority 2009, published 2010)
